Source: US20040037774A1, “Carrier for carrying radioactive substances and methods for using the same” (priority 2002, published 2004)

Columns and labels:
[1] = system: human fibroblast cells (normal cells); test: Affinity test on R-phycoerythrin for normal cells (fluorescent microscopy); assay type: cell-based; conditions: 10, 20, 40 μg/ml R-phycoerythrin, 24-hour incubation, FIG. 3B-3D
Procedure: (§1) R-phycoerythrin is complete dialyzed with 150 mM sodium phosphate buffer, and then serial dilution is carried out by using MEM medium as diluent to obtain the R-phycoerythrin dilutions of concentrations between 1-100 μg/ml.
(§2) The tumor cells are human neuroblastoma cells, and normal cells for comparison are human fibroblast cells. First, cells are maintained in MEM medium (pH 7.4) supplemented with 10% fetal bovine serum, and incubate at 37° C. and 95% humidity. Replace the MEM medium every two days. When carrying out cell subculture, first remove the medium, and rinse the cells once with sodium phosphate buffer. Then add 0.25% trypsin-EDTA to detach the cells from the surface of petri dish, and stop the reaction of trypsin-EDTA by giving proper amount of foregoing MEM medium, and thus the cell suspension is obtained. Secondly, seed 100,000 to 400,000 cells onto cover slips placed in a 12-well culture plate and incubate at 37° C. and 95% humidity for 16 hours.
(§3) Following is the affinity test on R-phycoerythrin for human fibroblast cells (normal cells) and human neuroblastoma cells (tumor cells). Take the 12-well culture plate with cells growing on cover slips mentioned in step 2. Remove the medium and rinse the cells once with sodium phosphate buffer. Add 1 mL of R-phycoerythrin dilutions mentioned in step 1 to the cells and follow with incubation at 37° C. and 95% humidity. […]

[2] = system: human neuroblastoma cells (tumor cells); test: Affinity test on R-phycoerythrin for tumor cells (fluorescent microscopy); assay type: cell-based; conditions: 10, 20, 40 μg/ml R-phycoerythrin, 24-hour incubation, FIG. 4B-4D
Procedure: as §1, §2, §3

R-phycoerythrin
fluorescent signal in cells (accumulation of R-phycoerythrin) [1]: no fluorescent signal is observed
strength of fluorescence signal in cells (accumulation of R-phycoerythrin) [2]: in accordance with the increasing amount of R-phycoerythrin
